According to paper PMC9412414, “A Study on Repositioning Nalidixic Acid via Lanthanide Complexation: Synthesis, Characterization, Cytotoxicity and DNA/Protein Binding Studies” (Pharmaceuticals, 2022):

Experiments:
[1] = molecular target: T1, apotransferrin (apo-Tf) (Homo sapiens, UniProt P02787); assay: Apo-Tf fluorescence quenching binding study; conditions: for Ka (association binding constant), Apo-Tf / n1 (Number of Binding Sites), Apo-Tf / n2 (Hill Coefficient), Apo-Tf / Kd / fa (fraction of fluorophore accessible to the quencher), Apo-Tf / Ksv* (Stern–Volmer quenching constant), Apo-Tf / quenching effect on apo-Tf fluorescence peak: apo-Tf 1 µM; for Ka (association binding constant), Apo-Tf / n1 (Number of Binding Sites), Apo-Tf / n2 (Hill Coefficient), Apo-Tf / Kd / fa (fraction of fluorophore accessible to the quencher), Apo-Tf / Kq (bimolecular quenching constant), Apo-Tf: 298 K; for Kd: read-out: Kd (dissociation constant), Apo-Tf; for fa (fraction of fluorophore accessible to the quencher), Apo-Tf / Ksv* (Stern–Volmer quenching constant), Apo-Tf: compound 0–8 µM; for Ksv* (Stern–Volmer quenching constant), Apo-Tf: Tris-HCl pH 7.4, 298 K; for quenching effect on apo-Tf fluorescence peak: compound up to 8 µM; for Kq (bimolecular quenching constant), Apo-Tf: from Ksv* with τ0 = 10^−8 s
T1 construct: purchased Sigma-Aldrich Chemical Co. (Schnelldorf, Germany)
Description: (§1) Using a Jasco FP 6500 spectrofluorometer (Jasco, Tokyo, Japan) and quartz cells with a 1 cm path length, the fluorescence spectra of HSA and apo-Tf were recorded in the presence and absence of the examined substances. The 2.5 mL samples containing 2.5 µM HSA or 1 µM apo-Tf were titrated by adding 5 µL of the tested substance at a time, a volume that corresponded to a 1 µM increase in concentration. The concentration range used for these experiments varied from 0 to 8 µM. The relevant spectra were collected in the emission domains of 300–500 nm (HSA) and 305–500 nm (apo-Tf) after 3 min of continuous stirring at room temperature, using excitation wavelengths of 280 nm (HSA) and 295 nm (apo-Tf).
(§2) Experiments were conducted in a pH = 7.4 Tris-HCl buffer (5 mM Tris-HCl/50 mM NaCl for HSA and 5 mM Tris-HCl/50 mM NaCl/25 mM NaHCO3 for apo-Tf).
(§3) The following modified Stern–Volmer equation has been used to calculate the Stern–Volmer constant, which will be denoted as KSV* in order to differentiate it from the Stern–Volmer constant calculated for the DNA binding experiments:(5) F0/F0−F=1/faKsv*[Q]+1/fa where F0 and F are the fluorescence intensities in the absence and presence of the tested compounds, fa is the fraction of fluorophore accessible to the quencher (the tested compounds), [Q] is the quencher concentration, and KSV* (M^−1) is the Stern–Volmer constant; the plot of F0/(F0 − F) against 1/[Q] yields KSV as the slope and fa as the y intercept.
(§4) Subsequently, the bimolecular quenching rate constant was obtained by using Equation (6):(6) Ksv^*=Kqτ0
(§5) Kq (M^−1·s^−1) is the bimolecular quenching rate constant and τ0 is the fluorophore’s lifespan in the absence of the investigated chemicals (10^−8 s). The value of Kq can be used to assess whether the quenching phenomena have an underlying static or dynamic mechanism.
(§6) Using the following equation, the affinity constant (Ka) and the number of binding sites (n) have been calculated: (7) lgF0−F/F=lgKa+nlg[Q]
(§7) The binding affinity, Kd, can be calculated using the quadratic function below:(8) F0−F/F0−Fb=[P]t+[Q]+Kd−([P]t+[Q]+Kd)^2−4[P]t[Q]/2[P]t where F and F0 are the fluorescence intensities of the protein in the presence and absence of the quencher, respectively, Fb is the fluorescence of a fully bound protein–quencher, [P]t is the total concentration of the protein, and [Q] is the concentration of the added quencher. Each binding isotherm was plotted against the total quencher concentration in solution as a function of bound to free protein (F/F0).
(§8) The isotherms were then fitted using the nonlinear regression function below:(9) F/F0= F1+(F2−F1)Kdn/Kdn+[Q]^n where n represents the Hill coefficient, F1 and F2 are the horizontal and vertical asymptotes, respectively. The Kd in Equation (9) is derived from the quadratic binding function (Equation (8)).
(§9) Data were collected in triplicate, averaged, and expressed as mean value ± standard deviation (SD). All graph fitting models were defined and built using OriginPro® 2018.

[2] = tested on: LoVo (human colorectal adenocarcinoma) cell line; assay: MTS cytotoxicity assay, LoVo cell line; format: cell-based; conditions: 48 h of incubation
Description: (§10) LoVo, MDA-MB-231 and HUVEC human cell lines were purchased from American Type Culture Collection (ATCC). Cells were routinely maintained in culture either in culture flasks or seeded in plates, using Dulbecco’s modified Eagle medium/nutrient mixture F-12 (DMEM:F12) medium supplemented with […], 10% fetal calf serum (Sigma Aldrich, St. Louis, MO, USA), 100 units/mL penicillin, 100 μg/mL streptomycin and incubated at 37 °C in 5% CO2 humidified atmosphere.
(§11) Cytotoxicity studies were performed in 96-well microtiter plates with flat bottoms (Falcon, Teterboro, NJ, USA) using the CellTiter 96 Aqueous One Solution Cell Proliferation Assay (Promega, Madison, WI, USA), an MTS-based colorimetric assay. Metabolically active cells have the ability to reduce MTS [3-(4,5-dimethylthiazol-2-yl)-5-(3-carboxymethoxyphenyl)-2-(4-sulfophenyl)-2H-tetrazolium, inner salt], a yellow tetrazolium salt, to a colored formazan that is soluble in the culture medium. Briefly, 15 × 10^3 cells per well were cultured in 100 µL culture medium. After 24 h, adherent cells were treated with different concentrations of the studied compounds, as well as adriamycin (Adr) and cisplatin (Cis-Pt), used as positive controls for 24 h and 48 h, respectively. Each well was then filled with 20 µL of reagent containing MTS and PES (phenazine ethosulfate, a cationic dye with excellent chemical stability that binds to MTS and produces a stable solution). The resulting formazan was determined using a Tecan GENios Spectrophotometer (Tecan US, Durham, NC, USA) by measuring the absorbance at λ = 492 nm after incubation for 4 h at 37 °C with moderate agitation every 15 min. The cytotoxicity tests were performed in triplicate, with results reported as mean values with standard deviations (SD). The cytotoxicity of DMSO was also investigated under the same conditions, and no harmful effect was found at doses less than 1%.
(§12) Data were expressed as cell viability by comparing with untreated cells considered 100% viable, using the following formula:(1) Cell viability (%)=absorbance of treated cells−absorbance of culture medium/absorbance of untreated cells−absorbance of culture medium

[3] = tested on: HUVEC (human umbilical vein endothelial cells); assay: MTS cytotoxicity assay, HUVEC normal cell line; format: cell-based; conditions: 24 h of incubation
Description: as §10, §11, §12

[4] = tested on: EB–DNA system (CT-DNA); assay: Competitive binding assay with ethidium bromide (EB) through fluorescence spectroscopy; parameters: species or system calf; conditions: EB 2 µM, CT-DNA 10 µM, compound 0–40 µM
Description: The fluorescence spectra were recorded using 1.6 mL samples containing 10 µM CT-DNA, 2 µM EB, and increasing amounts (0–40 µM with an increment of 5 µM) of tested compounds; the samples were prepared by keeping the components in contact for 10 min at room temperature, under continuous stirring and in the dark. The excitation wavelength was 500 nm, and the spectra were recorded between the wavelengths of 520 and 800 nm. A Jasco FP 6500 fluorometer and quartz cells with a 1 cm route length were employed. The classical Stern–Volmer equation (Equation (3)) was used to interpret the obtained data:(3) F0/F=1+KSV·[Q] F0 and F are the fluorescence intensities of the EB–DNA samples in the absence and presence of the tested compounds, respectively; KSV is the Stern–Volmer constant, which was computed as the slope from the plot of F0/F vs. [Q], where [Q] is the chemical concentration.
The binding ratio was plotted against the logarithm of the concentration in comparison with a control sample exposed solely to DMSO. (4) y=A1+(A2−A1)×x^n/K50^n+x^n
For fitting data points, the modified Hill function with offset (Origin®) was used: where y represents the binding ratio (F/F0), x represents the concentration, A1 represents the minimum of y values, A2 represents the maximum of y values, K50 represents the concentration corresponding to 50% binding or the half maximum binding constant, and n represents the Hill coefficient.

[5] = molecular target: T2, human serum albumin (HSA) (Homo sapiens, UniProt P02768); assay: HSA fluorescence quenching binding study; conditions: for Ka (association binding constant), HSA / n1 (Number of Binding Sites), HSA / n2 (Hill Coefficient), HSA / Kd / fa (fraction of fluorophore accessible to the quencher), HSA / Kq (bimolecular quenching constant), HSA: 298 K; for Kd: read-out: Kd (dissociation constant), HSA; for fa (fraction of fluorophore accessible to the quencher), HSA / Ksv* (Stern–Volmer quenching constant), HSA: compound 0–8 µM; for Ksv* (Stern–Volmer quenching constant), HSA: Tris-HCl pH 7.4, 298 K; for Kq (bimolecular quenching constant), HSA: from Ksv* with τ0 = 10^−8 s
T2 construct: purchased Sigma-Aldrich Chemical Co. (Schnelldorf, Germany)
Description: as §1, §2, §3, §4, §5, §6, §7, §8, §9

T1 sequence (P02787 20-698): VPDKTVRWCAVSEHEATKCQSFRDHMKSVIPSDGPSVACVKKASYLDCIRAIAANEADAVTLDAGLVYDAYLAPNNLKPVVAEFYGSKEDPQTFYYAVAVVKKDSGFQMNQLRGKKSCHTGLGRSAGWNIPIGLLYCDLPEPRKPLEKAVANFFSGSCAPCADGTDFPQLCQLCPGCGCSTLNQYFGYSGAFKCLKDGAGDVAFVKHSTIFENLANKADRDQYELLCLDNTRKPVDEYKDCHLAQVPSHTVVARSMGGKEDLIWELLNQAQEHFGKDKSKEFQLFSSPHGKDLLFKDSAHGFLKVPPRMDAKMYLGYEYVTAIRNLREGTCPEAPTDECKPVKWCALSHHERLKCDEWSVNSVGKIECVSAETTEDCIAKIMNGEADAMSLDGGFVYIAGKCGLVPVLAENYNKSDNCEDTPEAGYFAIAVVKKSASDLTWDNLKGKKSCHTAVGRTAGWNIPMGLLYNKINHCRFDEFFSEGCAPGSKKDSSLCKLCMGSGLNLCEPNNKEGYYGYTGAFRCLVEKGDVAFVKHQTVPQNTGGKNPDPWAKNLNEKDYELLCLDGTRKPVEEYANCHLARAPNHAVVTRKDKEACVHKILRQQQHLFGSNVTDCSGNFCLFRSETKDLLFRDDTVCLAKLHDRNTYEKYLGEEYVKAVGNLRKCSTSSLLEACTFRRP
T2 sequence (P02768 25-609): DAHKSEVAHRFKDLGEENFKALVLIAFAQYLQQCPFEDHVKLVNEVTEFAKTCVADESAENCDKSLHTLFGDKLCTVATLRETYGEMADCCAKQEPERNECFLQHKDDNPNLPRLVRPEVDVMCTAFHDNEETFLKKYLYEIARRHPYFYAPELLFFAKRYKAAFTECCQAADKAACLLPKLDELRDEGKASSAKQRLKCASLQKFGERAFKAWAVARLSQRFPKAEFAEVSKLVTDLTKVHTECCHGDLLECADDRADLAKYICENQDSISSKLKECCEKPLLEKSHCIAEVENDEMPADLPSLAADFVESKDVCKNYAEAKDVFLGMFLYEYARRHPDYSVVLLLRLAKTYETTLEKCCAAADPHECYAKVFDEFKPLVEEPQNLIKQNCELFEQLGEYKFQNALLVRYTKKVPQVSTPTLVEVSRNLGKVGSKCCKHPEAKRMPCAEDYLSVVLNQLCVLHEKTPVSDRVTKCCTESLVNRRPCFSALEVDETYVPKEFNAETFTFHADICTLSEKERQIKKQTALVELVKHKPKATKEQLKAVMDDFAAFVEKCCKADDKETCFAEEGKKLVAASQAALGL

Row | Molecule | Ka (association binding constant), Apo-Tf [1] | n1 (Number of Binding Sites), Apo-Tf [1] | n2 (Hill Coefficient), Apo-Tf [1] | Kd [1] [µM] | fa (fraction of fluorophore accessible to the quencher), Apo-Tf [1] | Ksv* (Stern–Volmer quenching constant), Apo-Tf [1] | quenching effect on apo-Tf fluorescence peak [1] [%] | Kq (bimolecular quenching constant), Apo-Tf [1] [M⁻¹ s⁻¹] | IC50 [2] [µM] | IC50 [3] [µM] | EB Displacement Assay K50 (half maximum binding constant) [4] [µM] | KSV, Stern–Volmer quenching constant (EB–DNA) [4] | Ka (association binding constant), HSA ([5]; HSA 2.5 µM) | n1 (Number of Binding Sites), HSA ([5]; HSA 2.5 µM) | n2 (Hill Coefficient), HSA ([5]; HSA 2.5 µM) | Kd ([5]; HSA 2.5 µM) [µM] | fa (fraction of fluorophore accessible to the quencher), HSA ([5]; HSA 2.5 µM) | Ksv* (Stern–Volmer quenching constant), HSA ([5]; HSA 2.5 µM) | quenching effect on HSA fluorescence peak ([5]; HSA 2.5 µM, compound up to 8 µM) | Kq (bimolecular quenching constant), HSA [5] [M⁻¹ s⁻¹]
1 | CCn1cc(C(=O)[O-])c(=O)c2ccc(C)nc21.CCn1cc(C(=O)[O-])c(=O)c2ccc(C)nc21.O.O.O.O.[OH-].[Sm+3] [Sm(nal)2, Sm(C12H11N2O3)2(OH)(H2O)·3H2O] | (10.17 ± 6.14) × 10^4 M^−1 | 1.01 ± 0.05 | 1.71 ± 0.31 | 6.16 ± 1.27 | 0.79 ± 0.02 | (1.16 ± 0.06) × 10^5 M^−1 | 35 | 1.16e+13 | 92.4 ± 16 | > 200 | 31.35 ± 4.21 | 10.24 ± 0.22 M^−1 (×10^3) | (8.25 ± 1.62) × 10^5 M^−1 | 1.08 ± 0.01 | 1.34 ± 0.09 | 3.6 ± 0.11 | 1.05 ± 0.02 | (2.50 ± 0.12) × 10^5 M^−1 | ~ 73% | 2.5e+13
2 | Gd(C12H11N2O3)3(H2O)2·1.5H2O [Gd(nal)3] | (2.63 ± 0.39) × 10^4 M^−1 | 0.87 ± 0.01 | 1.22 ± 0.12 | 5.86 ± 0.72 | 0.82 ± 0.02 | (1.78 ± 0.07) × 10^5 M^−1 | – | 1.78e+13 | 28.4 ± 7.95 | 58.4 ± 29.3 | 31.88 ± 7.73 | 9.86 ± 0.19 M^−1 (×10^3) | (19.61 ± 1.83) × 10^5 M^−1 | 1.14 ± 0.01 | 1.35 ± 0.12 | 3.27 ± 0.11 | 1.10 ± 0.00 | (2.69 ± 0.05) × 10^5 M^−1 | – | 2.69e+13
3 | Eu(C12H11N2O3)3(H2O)2·2.5H2O [Eu(nal)3] | (2.25 ± 1.01) × 10^4 M^−1 | 0.84 ± 0.03 | 1.58 ± 0.23 | 3.85 ± 0.29 | 0.80 ± 0.02 | (2.21 ± 0.13) × 10^5 M^−1 | 48 | 2.21e+13 | 26.9 ± 5.72 | > 200 | 30.96 ± 10.85 | 9.62 ± 0.10 M^−1 (×10^3) | (21.59 ± 2.04) × 10^5 M^−1 | 1.13 ± 0.00 | 1.17 ± 0.27 | 2.67 ± 0.21 | 1.13 ± 0.01 | (2.89 ± 0.11) × 10^5 M^−1 | – | 2.89e+13
